Data reported in publication PMC12153338, “Resistance to oxyimino-cephalosporins conferred by an alternative mechanism of hydrolysis by the Acinetobacter-derived cephalosporinase-33 (ADC-33), a class C β-lactamase present in carbapenem-resistant Acinetobacter baumannii (CRAb)” (mBio, 2025).
≈ marks a conversion by molar mass, not a printed value.

Experiments:
[1] = system: ADC-143 in DH10B Escherichia coli; experiment: MIC by broth microdilution, ADC-143 in DH10B E. coli; assay type: cell-based; settings: DH10B E. coli expressing ADC-143 (non-Adup) from pBCSK−, FDC in iron-depleted cation-adjusted MH broth, mode of triplicate
Procedure: (§1) Susceptibility testing to standard antibiotics was performed by broth microdilution according to 2024 Clinical and Laboratory Standards Institute (CLSI) guidelines ([38]). MICs for FDC were done in iron-depleted cation-adjusted Mueller-Hinton (MH) broth according to CLSI methods. All MICs were interpreted according to the 2024 CLSI guidelines ([38]). MICs are done in triplicate, and the mode MIC value is reported.
(§2) blaADC-7 pBCSK− was cloned and expressed in E. coli DH10B cells as previously described for MIC determinations ([3]). The pBCSK-non-inducible phagemid vector has a chloramphenicol resistance gene used to aid selection. All other blaADC variants were synthesized by GenScript according to the blaADC-7 pBCSK− strategy, cloning into the XbaI/BamHI sites of the pBCSK− vector ([5]).

ADC-30 [2] = target: T1, ADC-30 (Acinetobacter baumannii, UniProt A7XM81); experiment: Timed electrospray ionization mass spectrometry of acylated adducts, ADC-30; assay type: binding; settings: ADC-30, +468 Da adduct, at 1 h; enzyme:substrate 1:25
Procedure: (§3) β-Lactamase (5 µg) was incubated with substrate at a molar ratio of 1:25 (FDC, CAZ, meropenem [MEM]) in sterile 10 mM PBS, pH 7.4, for a total reaction volume of 20 µL (t = 30 s, 1 min, 15 min, 30 min, 1 h, 2 h, and 24 h). Reactions were quenched with 1% acetonitrile and 0.1% formic acid. Samples were analyzed using Q-TOF Waters Synapt-G2-Si and a Waters Acquity ultrapressure liquid chromatography BEH C18 column (1.7 µm […]; 2.1 × 50 mm). MassLynx v.4.1 was used to deconvolute protein peaks. The tune settings for each data run were as follows: capillary voltage at 3.5 kV, sampling cone at 35, source offset at 35, source temperature 100°C, desolvation temperature 500°C, cone gas at 100 L/h, desolvation gas at 800 L/h, and nebulizer bar at 6.0. Mobile phase A was 0.1% formic acid-water. Mobile phase B was 0.1% formic acid-acetonitrile. The mass accuracy for this system is ±5 Da. Mass spectrometry experiments were performed once over a range of time points.

ADC-7 = ADC-7 (Acinetobacter baumannii, UniProt Q6DRA1); experiment: Competition kinetics with nitrocefin (Ki), ADC-7; assay type: biochemical; settings: 3 min pre-incubation, Cheng-Prusoff corrected
Procedure: (§4) For inhibition kinetics, utilizing NCF as a colorimetric substrate of ADCs, the inhibition constant (Ki) of CAZ and FDC with ADCs was determined using competition kinetics as previously described ([5]). After a 3 min pre-incubation of the enzyme (2 nM) with increasing concentration of the inhibitor, measurements of the initial velocities were performed with the addition of 100–200 µM NCF (twofold of the experimentally determined KM value). To determine the average velocities (v0), data from three experiments were fit to the followingequation: […]
(§5) where vu represents the NCF uninhibited velocity and IC50 represents the inhibitor concentration that results in a 50% reduction of vu. The Ki value was corrected for the NCF affinity (KM values for each ADC) with the Cheng-Prusoff ([5]) equation: […]
(§6) The standard error for Ki values was generated by factoring in the larger of the proportional standard errors for the individual IC50 value and the KM -NCF value.

[3] = system: ADC-33 in DH10B Escherichia coli; experiment: MIC by broth microdilution, ADC-33 in DH10B E. coli; assay type: cell-based; settings: DH10B E. coli expressing ADC-33 (Adup) from pBCSK−, FDC in iron-depleted cation-adjusted MH broth, mode of triplicate
Procedure: as §1, §2

ADC-33 [4] = target: T2, ADC-33 (Acinetobacter baumannii, UniProt A7Y407); experiment: Timed electrospray ionization mass spectrometry of acylated adducts, ADC-33; assay type: binding; settings: ADC-33, incubation 30 s–1 h; enzyme:substrate 1:25
Procedure: as §3

[5] = system: ADC-172 in DH10B Escherichia coli; experiment: MIC by broth microdilution, ADC-172 in DH10B E. coli; assay type: cell-based; settings: Escherichia coli; DH10B E. coli expressing ADC-172 (Adup) from pBCSK−; FDC in iron-depleted cation-adjusted MH broth; mode of triplicate; read-out: MIC
Procedure: as §1, §2

DH10B alone = experiment: MIC by broth microdilution, DH10B alone; assay type: cell-based; settings: Escherichia coli; DH10B alone (control strain); FDC in iron-depleted cation-adjusted MH broth
Procedure: as §1, §2

ADC-30 [6] = target: T1, ADC-30; experiment: Competition kinetics with nitrocefin (Ki), ADC-30; assay type: biochemical; settings: 3 min pre-incubation, Cheng-Prusoff corrected
Procedure: as §4, §5, §6

ADC-33 [7] = target: T2, ADC-33; experiment: Competition kinetics with nitrocefin (Ki), ADC-33; assay type: biochemical; settings: 3 min pre-incubation, Cheng-Prusoff corrected
Procedure: as §4, §5, §6

ADC-30 [8] = target: T1, ADC-30; experiment: Thermal denaturation by circular dichroism, ADC-30; assay type: binding; settings: ADC-30 12 µM, 1 mM antibiotic, PBS pH 7.4
Procedure: For thermal denaturation, protein samples were monitored for helical content by circular dichroism in the far-UV region at 210 and 220 nm using a Jasco J-815 spectrometer (Easton, MD) with a Peltier-effect temperature controller, as previously described ([41]). Enzyme concentrations were 12 µM in phosphate-buffered saline (PBS) pH 7.4. The thermodynamic stability of apoADC-30 and ADC-33, and with 1 mM FDC and CAZ, was determined from equilibrium unfolding curves. With the assumption of a reversible two-state transition, we determined the Tm at the midpoint of equilibrium folding. Thermal denaturation experiments were done in duplicate under the same conditions, with each data point representing the average of three successive scans, and the Tm values are consistent with ±1°C variation.

ADC-217 = ADC-217 (Acinetobacter baumannii, UniProt Q6DRA1, V286E, form not given); experiment: Competition kinetics with nitrocefin (Ki), ADC-217; assay type: biochemical; settings: 3 min pre-incubation, Cheng-Prusoff corrected
Procedure: as §4, §5, §6

ADC-33 [9] = target: T2, ADC-33; experiment: Steady-state hydrolysis kinetics, ADC-33; assay type: biochemical
Procedure: Steady-state kinetic parameters were determined by combining pure enzyme with antibiotic substrates in 50 mM NaH2PO4, pH 7.4, at room temperature. Changes in absorbance were measured on the Cary 60 UV−Vis spectrophotometer (Agilent Technologies) and converted to velocity using the change in extinction coefficient specific to nitrocefin (NCF) (ε482 = 17,400 M^−1·cm^−1), CAZ (ε260 8,660 M^−1·cm^−1), and cefiderocol (ε259 9,430 M^−1·cm^−1). The concentration of enzyme ranged from 0.1 to 1.0 µM, and all kinetic experiments were performed at least in triplicate. Initial velocities were fitted to the Michaelis-Menten equation, yielding kcat and KM values. The standard error for kcat/KM values was generated by factoring in the larger of the proportional standard errors for the individual kcat value and the KM value. For ADC/substrate combinations in which the KM was too large to accurately determine both kcat and KM values, the initial velocities at kcat/KM values were calculated from linear fits of vo in low [S] ranges (<0.08 * KM).

ADC-172 = ADC-172 (Acinetobacter baumannii, UniProt A7Y407, N321K); experiment: Competition kinetics with nitrocefin (Ki), ADC-172; assay type: biochemical; settings: 3 min pre-incubation, Cheng-Prusoff corrected
Procedure: as §4, §5, §6

In the case of CC(C)(O/N=C(\C(=O)N[C@@H]1C(=O)N2C(C(=O)[O-])=C(C[n+]3ccccc3)CS[C@H]12)c1csc(N)n1)C(=O)O [CAZ, ceftazidime], the MIC [1] is reported as 256 µg/mL (≈ 468 µM), the “percentage of acylated adduct” value (ADC-30 [2]) is reported as 20% and the Ki (ADC-7) is reported as 2.1 ± 0.25 µM. The MIC [3] was 1020 µg/mL (≈ 1870 µM), the “formation of stable acyl-enzyme adduct” value (ADC-33 [4]) was “did not form a stable acyl-enzyme adduct” and the MIC [5] was 1020 µg/mL (≈ 1870 µM). The MIC (DH10B alone) was 0.5 µg/mL (≈ 0.915 µM), the Ki (ADC-30 [6]) was 3.23 ± 0.31 µM and the Ki (ADC-33 [7]) was 28.4 ± 2.09 µM. The “change of Tm of the β-lactamase on addition of antibiotic” value (ADC-30 [8]) was “does not alter the Tm”, the Ki (ADC-217) was 0.26 ± 0.014 µM and the “fold higher kcat/KM for CAZ versus FDC” value (ADC-33 [9]) was ~ 10 fold. For the same molecule, the Ki (ADC-172) was 12.7 ± 1.45 µM.
